Source: patent US20250255866A1, “USES OF FATTY ACID AMIDE HYDROLASE INHIBITORS IN TREATMENT OF TRAUMA RELATED PSYCHIATRIC DISORDERS” (Neuritek Therapeutics Ltd., priority 2020, published 2025)

Experiments:
FAAH = assay: Changes in plasma fatty acid amide (FAA) levels in response to the FAAH inhibitor; type: in vivo, human; conditions: 450 mg/day, plasma drug level 200 nm/ml to about 600 ng/ml, predicted maximal change
Experimental: In other embodiments, upon achieving trough steady state plasma, plasma FAA levels will be minimal. Conversely, at the 450 mg/day dose, changes in plasma FAA levels in response to 3-{[5-(2-Fluorophenyl)pyridin-2-yl]oxy}-N-(pyridazin-3-yl)azetidine-1-carboxamide ranging from 200 nm/ml to about 600 ng/ml are predicted to be maximal; in the order of 3, 4, 8 and 5 ng/mL for AEA, LEA, OEA and PEA, respectively.

adults with PTSD = assay: Exploratory behavioral analyses 1: effect relative to placebo on PTSD symptoms; type: in vivo, human
Experimental: (a). To evaluate the effect of daily 450 mg of 3-{[5-(2-Fluorophenyl)pyridin-2-yl]oxy}-N-(pyridazin-3-yl)azetidine-1-carboxamide relative to placebo in mitigating PTSD symptoms in adults with PTSD. Patient will be receiving a 450 mg dose of the study agent.
(b). To evaluate the effect of 450 mg of the study drug relative to placebo in mitigating PTSD symptoms that comprise a contemporary, five-factor phenotypic model of this disorder, as well as secondary “intermediate phenotype” measures of anxiety sensitivity and somatic anxiety.

O=C(Nc1cccnn1)N1CC(Oc2ccc(-c3ccccc3F)cn2)C1 [3-{[5-(2-Fluorophenyl)pyridin-2-yl]oxy}-N-(pyridazin-3-yl)azetidine-1-carboxamide]
change in plasma FAA level: AEA (FAAH): ~3 ng/mL
change in plasma FAA level: LEA (FAAH): ~4 ng/mL
change in plasma FAA level: OEA (FAAH): ~8 ng/mL
change in plasma FAA level: PEA (FAAH): ~5 ng/mL
PTSD symptoms of the five-factor phenotypic model, anxiety sensitivity and somatic anxiety, relative to placebo (adults with PTSD; 450 mg daily dose): most pronounced effect on reducing anxious arousal
overall severity of PTSD symptoms relative to placebo (adults with PTSD; daily 450 mg): reduction in overall severity of PTSD symptoms
